Melting point data for 92 molecules are collected here from a melting point compilation (Tetko et al.; mined from patent text by program, amines drawn as free bases though some values may be those of a salt).

Some results are limits rather than exact numbers.

For orientation: melting point means the temperature, or range, at which the solid turns liquid.

`CC(C)n1nc(-c2cc(NC(=O)c3ccccc3)cnc2-c2ccccc2)ccc1=O`: the melting point was 207 to 208 °C.

Take `Cc1oc(-c2ccccc2)nc1COc1ccc(CON=C(CCCCCCC(=O)O)c2ccc(F)cc2)cc1`: the melting point was in the range of 56 to 57 °C.

`COc1ccc(N)nc1C` returned a melting point of 98 to 100 °C.

`CCCC(=O)NN(C(=O)C(=O)NN)C(=O)c1ccccc1`: the melting point was 254 °C.

The molecule `Cc1cc(C)c(COc2cccc3c2C(=O)c2c(Cl)ccc4c2c-3nn4CCNCCO)c(C)c1` showed a melting point of 147 to 158 °C.

`COc1ccc(S(=O)(=O)Nc2cccnc2/C=C/c2ccc(O)cc2)cc1` displayed a melting point of 217 to 219 °C.

For `O=c1ncc(Br)cn1CSc1ccc(F)cc1`, the melting point was 206 °C.

Take `Cn1c(=O)n(CC2CO2)n(CC2CO2)c1=O` (configuration not stated): the melting point was 115 to 116 °C.

In the case of `COc1ncnc(N2CCc3ccccc3CC2)c1[N+](=O)[O-]`, the melting point was in the range of 147 to 150 °C.

Regarding `O=C(CSc1ccc(O)cc1)NC(=O)c1ccccc1`, the melting point lay within 149 to 151 °C.

In turn, `CC(Cc1ccc(OCC(=O)O)c(F)c1)NS(=O)(=O)c1ccccc1` (configuration not stated) registered a melting point of 148 to 150 °C.

As for `Cc1noc(NC(=O)CCl)c1C`, the melting point was 97 to 100 °C.

Molecule `NNc1ncccc1Br` came in with a melting point of 146 to 148 °C.

As to `COc1ccccc1N(CCN1CCC(C(=O)c2ccc(F)cc2)CC1)S(=O)(=O)c1cccnc1`, the melting point was in the range of 126 to 128 °C.

With `Cc1cc(Cl)cc(C(=O)NC(C)C2CC2)c1NC(=O)c1cc(Br)nn1-c1ccccc1Cl` (configuration not stated), the melting point lay in the range of 180 to 181 °C.

`Nc1c2c(cc3c1CCC3)CCC2` displayed a melting point of 94.5 to 96.6 °C.

The molecule `NC(=O)c1c[nH]cc1-c1cccc(Cl)c1Cl` registered a melting point of 185 to 190 °C.

`CNCCCc1c[nH]c(-c2ccc(F)cc2)c1-c1ccncc1` returned a melting point of 193 to 198 °C.

For `O=C1Nc2ccccc2C(c2ccccc2)=NC1NC(=S)c1cccc(C(F)(F)F)c1` (racemic), the melting point was in the range of 230 to 232 °C.

As for `O=S1(=O)N(CCCN2CC=C(c3c[nH]c4ccc(F)cc34)CC2)c2cccc3c2N1CCC3`, the melting point amounted to 178 °C.

`CNc1nc(N)nc(NC)n1` returned a melting point of 291 °C.

Regarding `CC(C)Cc1ccc(C(C)C(=O)Oc2ccc(C(N)=S)cc2)cc1` (configuration not stated), the melting point fell in the range of 121 to 123 °C.

In the case of `COc1cc([N+](=O)[O-])ccc1-c1cnc(C)s1`, the melting point lay within 114 to 117 °C.

In turn, `CO[C@@H]1OC(C)(C)O[C@@]1(C)c1cccc(OCc2ccc3ccccc3c2)c1` (racemic) registered a melting point of 100 to 103 °C.

For the molecule `CS(=O)(=O)c1ccc(-c2ccc(C=C(Cl)Cl)s2)cc1`, the melting point is 143 to 145 °C.

Regarding `O=c1[nH]c2cc([N+](=O)[O-])ccc2c(=O)n1N1CC=C(c2ccc(Cl)cc2)CC1`, the melting point lay in the range of 210 to 212 °C.

`COc1cc(N)ccc1OC[C@H](O)C1CC1` registered a melting point of 71 °C.

Take `O=C(NC1N=C(c2ccccc2)c2oc3ccccc3c2NC1=O)OCc1ccccc1` (configuration not stated): the melting point was above 260 °C.

`COC(=O)CCn1c(C(=O)OCc2ccccc2)cc2c(C)c(C)c(OC)cc21` yielded a melting point of 198 °C.

As for `O=c1[nH]c2ccc(Br)cc2n1Cc1ccccc1`, the melting point is 245 to 246 °C.

As to `O=C1CCC(c2ccc3c(c2)C2(CC2)C(=O)N3)=NN1`, the melting point lay within 256 to 257 °C.

The molecule `O=C(c1ccc(-c2ccn(C(=O)c3ccc(Cl)cc3Cl)n2)cc1)N1Cc2cccn2Cc2ccccc21` gave a melting point of 180 to 182 °C.

`Cc1ccccc1-n1nnc2cnc3ccccc3c21` returned a melting point of 140 to 142 °C.

`CN1CC(=O)N(c2ccc3c(c2)CCC3)C1=S`: the melting point fell in the range of 158 to 160 °C.

With `Cc1cccc([N+](=O)[O-])c1C(=O)Nc1nnn[nH]1`, the melting point was in the range of 230 to 232 °C.

For `CCC[C@H](C)C(=O)O[C@H]1C[C@H](O)C=C2C=C[C@H](C)[C@H](CC[C@@H]3C[C@@H](O)CC(=O)O3)[C@H]21`, the melting point came to 134 °C.

Molecule `N#Cc1ccc(C2NC(=O)NC2=O)c(SCCc2ccccc2)c1` (configuration not stated) returned a melting point of 198 °C.

In turn, `CC(C)c1ccc(NC(=O)C2CCCc3c(OCc4ccccc4)ccc(F)c32)cn1` (configuration not stated) returned a melting point of 184 °C.

As for `Cn1ncc(C(=O)C2CC2)c1S(N)(=O)=O`, the melting point fell in the range of 125 to 127 °C.

Take `c1cnc2c(c1)cc(-c1nnn[nH]1)c1nnnn12`: the melting point lay in the range of 280 to 282 °C.

`CC(=O)N1CCn2c3c(c4cccc(c42)C1)CCCCCC3` came in with a melting point of 41 to 44 °C.

On to `O=C1NCCN1Cc1ccc2c(Br)cccc2c1`, for which the melting point was in the range of 158 to 161 °C.

In turn, `CC(C)OC(=O)Cn1c(=O)n(C)c(=O)n(-c2cc(N=c3sc(=S)n4n3CCCCC4)c(F)cc2Cl)c1=O` displayed a melting point of 108 to 118 °C.

`CCOc1nn(Cc2ccc(OCc3csc(-c4ccccc4)n3)nc2)cc1CCC(=O)O` came in with a melting point of 121 to 122 °C.

In turn, `CC(C)(C)c1cc(C=C2SCN(CC(N)=O)C2=O)cc(C(C)(C)C)c1O` yielded a melting point of 232 °C.

Take `C#CCCCON1Sc2cccc3cccc1c23`: the melting point fell in the range of 56 to 59 °C.

`COC(=O)C(C)Oc1ccc(Oc2ccc(C(F)(F)F)cc2)cc1` (configuration not stated) displayed a melting point of 142 °C.

Regarding `COc1ccc([C@@H]2OC(=O)[C@H](C)N2C(=O)OCc2ccccc2)cc1`, the melting point was 97 to 99 °C.

In turn, `CC(C)=CCNc1cccc(-c2ccnc3c(C(=O)c4cccs4)cnn23)c1` gave a melting point of 116 to 118 °C.

`CNC(=O)CCCCN1CCC(C(O)(c2ccc(F)cc2)c2ccc(F)cc2)CC1` came in with a melting point of 130 to 131 °C.

In the case of `CC(C)n1nc(-c2c(OCC(=O)O)nc(N)nc2-c2ccccc2)ccc1=O`, the melting point is 215 to 217 °C.

As for `COc1cc(OCc2ccccc2)ccc1S(=O)(=O)Cl`, the melting point worked out at 95 °C.

In the case of `c1csc(-c2ccnc(-c3cc(-c4cccs4)ccn3)c2)c1`, the melting point was above 250 °C.

The molecule `Cc1ccc(-c2c(CNC(=O)OC(C)(C)C)n(CC(C)C)c(=O)c3ccc(O)cc23)cc1` registered a melting point of 233 to 234 °C.

As for `CC(=O)OC1C(CO)OC(n2cnc3c(N)ncnc32)C1O` (configuration not stated), the melting point lay in the range of 195 to 201 °C.

Turning to `CC(O)c1cc(C(F)(F)F)cc(S(N)(=O)=O)c1` (configuration not stated), the melting point was 169 to 170 °C.

In the case of `Cn1cc2c(n1)-c1cnn(C)c1CC2(C)C`, the melting point fell in the range of 172 to 173 °C.

`CC(=O)c1ccc(-c2ccc(OCc3ccc4ccccc4n3)cc2)c([N+](=O)[O-])c1` registered a melting point of 160 to 162 °C.

For `COc1cc(CO)c(CO)cc1OCCCl`, the melting point is 93 to 94 °C.

As to `CC1(C)CC(O)C(C)(C)c2cc(CC=Cc3ccccc3C#N)ccc21` (configuration not stated), the melting point fell in the range of 163 to 165 °C.

Molecule `NC(=O)c1ccc(F)c2c1CC(NCCCc1c[nH]c3ccc(F)cc13)CO2` (configuration not stated) gave a melting point of 122 °C.

For the molecule `CC(C)S(=O)(=O)c1nc(OS(C)(=O)=O)cs1`, the melting point was 56.5 to 58.5 °C.

`CC(C)C1(C)C(=O)NC2(O)c3ncccc3C(=O)N21` (configuration not stated) had a melting point of 151 to 153 °C.

In the case of `O=c1[nH]c(=O)c2cc3occoc3cc12`, the melting point was in the range of 277 to 280 °C.

In turn, `CC(C)(C)OC(=O)N1CCc2ccc(NS(C)(=O)=O)cc2CC1` came in with a melting point of 153 to 154 °C.

Regarding `CCOC(=O)Cn1c2cccccc-2c(C(C)=O)c1=O`, the melting point lay in the range of 162 to 165 °C.

For `O=S(=O)(c1ccccc1)c1ccc2cc[nH]c2c1`, the melting point was in the range of 141 to 144 °C.

The molecule `O=C(CO)c1ccc(C(F)(F)F)cc1` displayed a melting point of 112 to 114 °C.

Regarding `CCCCCCCCCCCNC(=O)NCc1ccccc1`, the melting point was determined as 97 °C.

In turn, `O=C(O)CC1(O)CC(CCCCCCc2ccc(Cl)cc2Cl)OC1=O` (configuration not stated) showed a melting point of 77 to 79 °C.

As to `CCCCCC(C#CC1C(O)CC(=O)C1CCCCCCC(=O)OC)OC1CCCCO1` (mixture of isomers), the melting point lay in the range of 84 to 85 °C.

As for `CC(C)(C)OC(=O)N1c2ccccc2CC1c1ccccc1N` (configuration not stated), the melting point is 114 to 117 °C.

With `C=CCNc1ccc(N(CCO)CCO)cc1[N+](=O)[O-]`, the melting point lay within 73 to 75 °C.

Turning to `CCOC(=O)C(C#N)=Cc1cc(O)c(O)c([N+](=O)[O-])c1`, the melting point is 205 to 210 °C.

As for `O=c1ccc(C(F)(F)F)cn1Cc1ccccc1NCCCl`, the melting point was in the range of 93.5 to 95 °C.

`Cc1ccc(S(=O)(=O)NCCc2ccc(C(=O)CBr)cc2)cc1` displayed a melting point of 133 to 136 °C.

`CC(C)(C)c1cc(C(C)(C)C)[nH]n1`: the melting point lay in the range of 191 to 193 °C.

`C=CCc1cc2c(c(CC=C)c1O)CCC(=O)N2CCCN1CCN(c2cccc(Cl)c2)CC1` gave a melting point of 118 °C.

`CSc1ccc(-c2nc(SC)c(C#N)c(=O)n2-c2ccc(C(C)C)cc2)cc1` had a melting point of 180 to 181 °C.

With `NP(N)(=O)OCCCCl`, the melting point lay in the range of 111 to 112 °C.

For `CN1CC(C(=O)COC(=O)c2ccccc2)CC2c3cccc4[nH]cc(c34)CC21` (configuration not stated), the melting point was 163 to 165 °C.

As for `CC(=O)Oc1ccc2c(c1)COC(C(Cl)(Cl)Cl)N2` (configuration not stated), the melting point was in the range of 155 to 157 °C.

With `Cc1cccc(C=Cc2ccccc2C#N)n1`, the melting point fell in the range of 91 to 92 °C.

`CCOC(=O)c1cn2c3c(cc(N(C)C)cc3c1=O)CCC2C` (configuration not stated): the melting point fell in the range of 219 to 222 °C.

In the case of `CNc1nnc(SCc2ccccn2)s1`, the melting point lay in the range of 73 to 75 °C.

Molecule `O=C(Nc1ccc(O)cc1)OCc1ccccc1` came in with a melting point of 153 to 154 °C.

The molecule `COC(=O)CCc1ccccc1CC1C2CCC(O2)C1c1nc(C(=O)CCCCCC2CCCCC2)co1` (configuration not stated) came in with a melting point of 170 to 171 °C.

`Cc1nc2cc(C(=O)NC(C)C)c(NC(=O)c3cc(C(F)(F)F)nn3-c3ncccc3Cl)c(Cl)c2n1C`: the melting point fell in the range of 248 to 250 °C.

The molecule `CCN(CC)CCCN1CCN(c2cc(-c3ccnc(NCc4cccc(OC)c4)n3)cc3ccc(OC)cc23)CC1` registered a melting point of 156 to 160 °C.

`O=C(NCc1ccccn1)c1nc(-c2ccccc2)c(-c2ccc(=O)[nH]n2)s1` displayed a melting point of 221 to 222 °C.

Regarding `COCCOC(=O)C1=C(C)Nc2nccn2C1c1ccccc1C(F)(F)F` (configuration not stated), the melting point lay within 181 to 182 °C.

Regarding `COc1ccc(-c2coc3cc(O)ccc3c2=O)c(O)c1`, the melting point was 210 to 212 °C.
